pEC50: −log10 of the molar value. Calls of active or inactive are those of the source. The rule behind the calls is not given here.
Key:
HEK293 = test: Induction of SEAP reporter gene expression in TLR-deficient HEK293 cells at 5 to 1000 ng/ml; format: functional, cell-based; conditions: Homo sapiens
[1] = molecular target: T1, Toll-like receptor 9 (Homo sapiens) (UniProt Q9NR96); test: Agonist activity at human TLR9 expressed in HEK293 cells at 5 to 1000 ng/ml by QUANTI-blue SEAP reporter gene assay; format: cell-based
T1 sequence (whole entry): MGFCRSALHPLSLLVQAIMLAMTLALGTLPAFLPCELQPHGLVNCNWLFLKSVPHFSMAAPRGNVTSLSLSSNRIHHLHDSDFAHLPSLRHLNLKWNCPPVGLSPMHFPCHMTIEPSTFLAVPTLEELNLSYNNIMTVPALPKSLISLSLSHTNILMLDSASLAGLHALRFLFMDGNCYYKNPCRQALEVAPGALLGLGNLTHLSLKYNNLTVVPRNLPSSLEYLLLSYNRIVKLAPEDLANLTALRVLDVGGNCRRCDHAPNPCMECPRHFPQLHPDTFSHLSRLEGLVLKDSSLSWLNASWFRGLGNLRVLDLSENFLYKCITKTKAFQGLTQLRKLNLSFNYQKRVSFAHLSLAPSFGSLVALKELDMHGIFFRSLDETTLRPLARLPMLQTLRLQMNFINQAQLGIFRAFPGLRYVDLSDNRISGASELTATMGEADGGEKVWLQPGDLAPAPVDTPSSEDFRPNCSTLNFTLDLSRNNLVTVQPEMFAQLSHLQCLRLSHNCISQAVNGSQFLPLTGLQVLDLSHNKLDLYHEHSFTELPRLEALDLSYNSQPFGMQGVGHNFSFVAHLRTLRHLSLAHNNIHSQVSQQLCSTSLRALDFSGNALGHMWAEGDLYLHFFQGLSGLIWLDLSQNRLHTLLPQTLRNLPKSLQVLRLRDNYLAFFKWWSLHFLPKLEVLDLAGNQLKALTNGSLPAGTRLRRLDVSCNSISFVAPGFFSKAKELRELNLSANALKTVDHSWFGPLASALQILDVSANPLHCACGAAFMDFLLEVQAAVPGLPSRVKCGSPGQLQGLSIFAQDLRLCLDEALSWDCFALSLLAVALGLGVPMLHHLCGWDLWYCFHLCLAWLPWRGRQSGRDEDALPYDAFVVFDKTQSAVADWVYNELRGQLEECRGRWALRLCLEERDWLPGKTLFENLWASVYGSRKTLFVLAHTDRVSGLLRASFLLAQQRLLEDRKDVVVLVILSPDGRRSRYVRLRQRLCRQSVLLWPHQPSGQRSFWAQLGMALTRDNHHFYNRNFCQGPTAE

[2] = molecular target: T2, Toll-like receptor 8 (Homo sapiens) (UniProt Q9NR97); test: Agonist activity at human TLR8 expressed in HEK293 cells at 5 to 1000 ng/ml by QUANTI-blue SEAP reporter gene assay; format: cell-based
T2 sequence (whole entry): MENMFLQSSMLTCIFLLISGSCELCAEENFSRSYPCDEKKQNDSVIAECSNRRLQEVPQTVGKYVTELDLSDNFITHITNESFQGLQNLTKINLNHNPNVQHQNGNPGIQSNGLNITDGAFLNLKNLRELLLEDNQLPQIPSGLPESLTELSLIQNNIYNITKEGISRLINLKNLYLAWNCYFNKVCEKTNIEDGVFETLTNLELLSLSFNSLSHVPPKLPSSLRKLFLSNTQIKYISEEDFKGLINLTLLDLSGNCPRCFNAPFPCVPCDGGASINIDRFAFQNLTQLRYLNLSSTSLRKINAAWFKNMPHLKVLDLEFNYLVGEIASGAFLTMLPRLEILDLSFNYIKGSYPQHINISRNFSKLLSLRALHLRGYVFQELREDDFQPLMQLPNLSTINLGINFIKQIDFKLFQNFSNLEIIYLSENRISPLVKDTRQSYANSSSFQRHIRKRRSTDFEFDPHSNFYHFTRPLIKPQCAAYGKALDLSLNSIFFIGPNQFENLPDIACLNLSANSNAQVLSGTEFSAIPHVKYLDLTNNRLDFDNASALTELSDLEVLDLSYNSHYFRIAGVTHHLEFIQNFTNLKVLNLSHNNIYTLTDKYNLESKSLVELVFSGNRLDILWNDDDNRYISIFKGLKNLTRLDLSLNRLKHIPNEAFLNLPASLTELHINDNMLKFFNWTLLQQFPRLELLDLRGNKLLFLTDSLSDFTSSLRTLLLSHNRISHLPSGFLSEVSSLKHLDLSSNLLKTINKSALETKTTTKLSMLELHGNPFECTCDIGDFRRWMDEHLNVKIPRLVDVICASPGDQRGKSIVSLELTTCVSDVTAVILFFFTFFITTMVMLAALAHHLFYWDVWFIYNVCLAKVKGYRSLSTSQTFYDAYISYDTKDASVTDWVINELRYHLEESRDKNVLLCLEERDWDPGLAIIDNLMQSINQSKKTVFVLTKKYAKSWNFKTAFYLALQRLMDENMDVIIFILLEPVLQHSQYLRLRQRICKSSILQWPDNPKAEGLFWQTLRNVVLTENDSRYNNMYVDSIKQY

T-cell = test: Immunostimulatory activity in CFSE-labeled human T cells assessed as TLR7 agonist-induced cell proliferation at 2 to 200 nM after 6 days by FACS analysis; format: functional, cell-based
B cell = test: Immunostimulatory activity in CFSE-labeled human B cells assessed as TLR7 agonist-induced cell proliferation after 6 days by FACS analysis; format: functional, cell-based; conditions: 144 h
[3] = molecular target: T3, Toll-like receptor 7 (Homo sapiens) (UniProt Q9NYK1); test: Agonist activity at human TLR7 expressed in HEK293 cells at <= 50 ng/ml by QUANTI-blue SEAP reporter gene assay; format: cell-based
T3 sequence (whole entry): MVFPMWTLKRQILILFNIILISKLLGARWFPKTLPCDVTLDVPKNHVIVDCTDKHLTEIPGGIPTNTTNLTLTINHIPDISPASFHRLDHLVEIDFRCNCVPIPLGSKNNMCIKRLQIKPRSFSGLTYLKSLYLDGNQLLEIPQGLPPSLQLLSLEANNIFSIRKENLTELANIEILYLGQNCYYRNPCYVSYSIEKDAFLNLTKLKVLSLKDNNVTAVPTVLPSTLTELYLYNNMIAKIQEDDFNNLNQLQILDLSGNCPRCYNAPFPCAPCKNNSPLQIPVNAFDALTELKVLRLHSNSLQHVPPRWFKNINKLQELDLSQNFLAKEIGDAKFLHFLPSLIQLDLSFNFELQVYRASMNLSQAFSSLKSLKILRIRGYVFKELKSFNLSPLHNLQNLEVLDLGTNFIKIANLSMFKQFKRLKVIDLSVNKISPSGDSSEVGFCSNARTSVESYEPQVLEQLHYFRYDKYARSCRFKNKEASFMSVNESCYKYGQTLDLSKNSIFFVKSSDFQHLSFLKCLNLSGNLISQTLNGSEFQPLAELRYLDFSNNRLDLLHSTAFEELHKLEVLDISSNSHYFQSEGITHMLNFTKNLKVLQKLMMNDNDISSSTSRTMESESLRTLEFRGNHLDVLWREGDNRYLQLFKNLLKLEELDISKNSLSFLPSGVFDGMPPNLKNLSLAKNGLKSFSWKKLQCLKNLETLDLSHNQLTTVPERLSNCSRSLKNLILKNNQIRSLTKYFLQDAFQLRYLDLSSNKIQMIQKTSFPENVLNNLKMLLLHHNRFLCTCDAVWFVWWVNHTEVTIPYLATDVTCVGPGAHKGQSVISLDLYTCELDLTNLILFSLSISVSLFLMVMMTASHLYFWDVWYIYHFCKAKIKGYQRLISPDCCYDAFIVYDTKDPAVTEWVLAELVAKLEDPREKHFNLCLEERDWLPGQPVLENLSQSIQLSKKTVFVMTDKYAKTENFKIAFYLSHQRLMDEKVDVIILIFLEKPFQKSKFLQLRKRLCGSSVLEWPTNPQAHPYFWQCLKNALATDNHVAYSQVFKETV

Homo sapiens = organism: Homo sapiens; test: Immunostimulatory activity in CFSE-labeled human NK cells assessed as TLR7 agonist-induced cell proliferation at 2 to 200 nM after 6 days by FACS analysis; format: functional
[4] = molecular target: T3, Toll-like receptor 7 (Homo sapiens); test: Agonist activity at human TLR7 expressed in HEK293 cells at 1 ng/ml by QUANTI-blue SEAP reporter gene assay; format: cell-based

SMILES | Activity (HEK293) | Activity [1] | Activity [2] | Activity (T-cell) | pEC50 (B cell) | Activity [3] | Activity (Homo sapiens) | Activity [4]
CCCCOc1nc(N)c2nc(NCC)n(Cc3ccccc3)c2n1 | inactive | inactive | inactive | – | – | – | – | –
CCCCOc1nc(N)c2nc(O)n(Cc3ccc(C(=O)NCCOCCOCCN)cc3)c2n1 | inactive | inactive | inactive | inactive | 7.59 | Active | inactive | –
CCCCOc1nc(N)c2nc(O)n(Cc3ccc(C#CCN)cc3)c2n1 | inactive | inactive | inactive | – | – | Active | – | –
CCCCOc1nc(N)c2nc(SCCCCSc3nc4c(N)nc(OCCCC)nc4n3Cc3ccccc3)n(Cc3ccccc3)c2n1 | inactive | inactive | inactive | – | – | – | – | inactive
CCCCOc1nc(N)c2nc(SCc3ccccc3)n(Cc3ccccc3)c2n1 | inactive | inactive | inactive | – | – | – | – | inactive
CCCCOc1nc(N)c2nc(S)n(Cc3ccccc3)c2n1 | inactive | inactive | inactive | inactive | 5.57 | Active | inactive | –
CCCCOc1nc(N)c2nc(O)n(Cc3ccc(C(=O)O)cc3)c2n1 | inactive | inactive | inactive | inactive | 6.32 | Active | inactive | –
CCCCOc1nc(N)c2nc(O)n(Cc3ccc(I)cc3)c2n1 | inactive | inactive | inactive | inactive | 6.90 | Active | inactive | –
CCCCOc1nc(N)c2nc(O)n(Cc3ccc(C(=O)NCCOCCOCCNC(=O)CCC(=O)N4Cc5ccccc5C#Cc5ccccc54)cc3)c2n1 | inactive | inactive | inactive | – | – | Active | – | –
CCCCOc1nc(N)c2nc(OCc3ccccc3)n(Cc3ccccc3)c2n1 | inactive | inactive | inactive | – | – | – | – | inactive
CCCCOc1nc(N)c2nc(O)n(Cc3ccc(CCCN)cc3)c2n1 | inactive | inactive | inactive | – | – | Active | – | –
CCCCOc1nc(N)c2nc(O)n(Cc3ccc(C(=O)NCCCCN)cc3)c2n1 | inactive | inactive | inactive | inactive | 7.32 | Active | inactive | inactive
CCCCOc1nc(N)c2c(n1)n(Cc1ccccc1)c(=O)n2Cc1ccccc1 | inactive | inactive | inactive | – | – | – | – | inactive
CCCCOc1nc(N)c2nc(SCc3ccc(Br)cc3)n(Cc3ccccc3)c2n1 | inactive | inactive | inactive | – | – | – | – | inactive
CCCCOc1nc(N)c2nc(SCc3ccc(C#N)cc3)n(Cc3ccccc3)c2n1 | inactive | inactive | inactive | – | – | – | – | inactive
CCCCOc1nc(N)c2nc(SCC(=O)OC(C)(C)C)n(Cc3ccccc3)c2n1 | inactive | inactive | inactive | – | – | – | – | inactive
CCCCOc1nc(N)c2nc(O)n(Cc3ccc(C#CCO)cc3)c2n1 | inactive | inactive | inactive | inactive | 7.23 | Active | inactive | –
CCCCOc1nc(N)c2nc(O)n(Cc3ccc(C(=O)NCCN)cc3)c2n1 | inactive | inactive | inactive | inactive | 7.28 | Active | inactive | –
CCCCOc1nc(N)c2nc(SCC(=O)O)n(Cc3ccccc3)c2n1 | inactive | inactive | inactive | – | – | – | – | inactive

Reference: ChEMBL document CHEMBL4425188, “Synthesis and immunostimulatory activity of substituted TLR7 agonists” (Bioorg Med Chem Lett, 2016)
